Active and inactive are the calls of the source. No rule for the calls is given here.

The test system of the series is CCRIS mutagenicity, Ames/micronucleus/aberration tests. The series can be described thus: CCRIS mutagenicity studies.
The mark [1] stands for this setting: Test System: AMES SALMONELLA TYPHIMURIUM, Strain/Indicator: TA98, Metabolic Activation: RAT, LIVER, S-9, AROCLOR 1254, Method: STANDARD PLATE.
The mark [2] stands for this setting: Test System: AMES SALMONELLA TYPHIMURIUM, Strain/Indicator: TA100, Metabolic Activation: RAT, LIVER, S-9, AROCLOR 1254, Method: STANDARD PLATE.
[3] abbreviates: Test System: AMES SALMONELLA TYPHIMURIUM, Strain/Indicator: TA98, Metabolic Activation: NONE, Method: PREINCUBATION
The mark [4] stands for this setting: Test System: AMES SALMONELLA TYPHIMURIUM, Strain/Indicator: TA100, Metabolic Activation: NONE, Method: PREINCUBATION

Regarding `O=C(O)C[C@H](NC(=O)COc1ccc(Cl)cc1Cl)C(=O)O`, the mutagenic call is, setting by setting: (Test System: AMES SALMONELLA TYPHIMURIUM, Strain/Indicator: TA97, Metabolic Activation: RAT, LIVER, S-9, AROCLOR 1254, Method: STANDARD PLATE) “inactive; negative”; (Test System: AMES SALMONELLA TYPHIMURIUM, Strain/Indicator: TA97, Metabolic Activation: WOODCHUCK, LIVER, S-9, 3-METHYLCHOLANTHRENE, Method: STANDARD PLATE) “inactive; negative”; under setting [1], “inactive; negative”; (Test System: AMES SALMONELLA TYPHIMURIUM, Strain/Indicator: TA98, Metabolic Activation: WOODCHUCK, LIVER, S-9, 3-METHYLCHOLANTHRENE, Method: STANDARD PLATE) “inactive; negative”; under setting [2], “inactive; negative”; (Test System: AMES SALMONELLA TYPHIMURIUM, Strain/Indicator: TA100, Metabolic Activation: WOODCHUCK, LIVER, S-9, 3-METHYLCHOLANTHRENE, Method: STANDARD PLATE) “inactive; negative”. Further, the mutagenic call by setting is: (Test System: AMES SALMONELLA TYPHIMURIUM, Strain/Indicator: TA1535, Metabolic Activation: RAT, LIVER, S-9, AROCLOR 1254, Method: STANDARD PLATE) “inactive; negative”; (Test System: AMES SALMONELLA TYPHIMURIUM, Strain/Indicator: TA1535, Metabolic Activation: WOODCHUCK, LIVER, S-9, 3-METHYLCHOLANTHRENE, Method: STANDARD PLATE) “inactive; negative”; (Test System: AMES SALMONELLA TYPHIMURIUM, Strain/Indicator: TA1538, Metabolic Activation: RAT, LIVER, S-9, AROCLOR 1254, Method: STANDARD PLATE) “inactive; negative”; (Test System: AMES SALMONELLA TYPHIMURIUM, Strain/Indicator: TA1538, Metabolic Activation: WOODCHUCK, LIVER, S-9, 3-METHYLCHOLANTHRENE, Method: STANDARD PLATE) “inactive; negative”.

For `COc1cc(O)c2c(=O)oc3cc(O)cc(C)c3c2c1`, the mutagenic call is “inactive; negative” (Test System: AMES SALMONELLA TYPHIMURIUM, Strain/Indicator: TA98, Metabolic Activation: NONE, Method: STANDARD PLATE); “inactive; negative” (Test System: AMES SALMONELLA TYPHIMURIUM, Strain/Indicator: TA98, Metabolic Activation: RAT LIVER S-9, AROCLOR 1254, Method: STANDARD PLATE); “inactive; negative” under setting [1]; “inactive; negative” (Test System: AMES SALMONELLA TYPHIMURIUM, Strain/Indicator: TA100, Metabolic Activation: NONE, Method: STANDARD PLATE); “inactive; negative” (Test System: AMES SALMONELLA TYPHIMURIUM, Strain/Indicator: TA100, Metabolic Activation: RAT LIVER S-9, AROCLOR 1254, Method: STANDARD PLATE); “inactive; negative” under setting [2]. Also, the mutagenic call was “inactive; negative. nitrosation did not increase mutagenicity” (Test System: Ames Salmonella typhimurium, Strain/Indicator: TA97, Metabolic Activation: None, Method: Standard plate); “inactive; negative. nitrosation did not increase mutagenicity” (Test System: Ames Salmonella typhimurium, Strain/Indicator: TA97, Metabolic Activation: Rat, Liver, S-9, Aroclor 1254 (10%), Method: Standard plate); “inactive; negative. nitrosation did not increase mutagenicity” (Test System: Ames Salmonella typhimurium, Strain/Indicator: TA102, Metabolic Activation: None, Method: Standard plate); “inactive; negative. nitrosation did not increase mutagenicity” (Test System: Ames Salmonella typhimurium, Strain/Indicator: TA102, Metabolic Activation: Rat, Liver, S-9, Aroclor 1254 (10%), Method: Standard plate); “inactive; negative. nitrosation did not increase mutagenicity” (Test System: Ames Salmonella typhimurium, Strain/Indicator: TA104, Metabolic Activation: None, Method: Standard plate); “inactive; negative. nitrosation did not increase mutagenicity” (Test System: Ames Salmonella typhimurium, Strain/Indicator: TA104, Metabolic Activation: Rat, Liver, S-9, Aroclor 1254 (10%), Method: Standard plate). In addition, for the setting “Test System: E. COLI, Strain/Indicator: ND-160, Metabolic Activation: NONE, Method: STANDARD PLATE”, the mutagenic call was “active; positive”.

Turning to `c1ccc(P(c2ccccc2)c2ccccc2)cc1`, the mutagenic call is, setting by setting: (Test System: AMES SALMONELLA TYPHIMURIUM, Strain/Indicator: TA98, Metabolic Activation: HAMSTER, LIVER, S-9, AROCLOR 1254 (10%), Method: PREINCUBATION) “inactive; negative”; under setting [3], “inactive; negative”; (Test System: AMES SALMONELLA TYPHIMURIUM, Strain/Indicator: TA98, Metabolic Activation: RAT, LIVER, S-9, AROCLOR 1254 (10%), Method: PREINCUBATION) “inactive; negative”; (Test System: AMES SALMONELLA TYPHIMURIUM, Strain/Indicator: TA100, Metabolic Activation: HAMSTER, LIVER, S-9, AROCLOR 1254 (10%), Method: PREINCUBATION) “inactive; negative”; under setting [4], “inactive; negative”; (Test System: AMES SALMONELLA TYPHIMURIUM, Strain/Indicator: TA100, Metabolic Activation: RAT, LIVER, S-9, AROCLOR 1254 (10%), Method: PREINCUBATION) “inactive; negative”. The mutagenic call (Test System: AMES SALMONELLA TYPHIMURIUM, Strain/Indicator: TA1535, Metabolic Activation: HAMSTER, LIVER, S-9, AROCLOR 1254 (10%), Method: PREINCUBATION) was “inactive; negative”; the mutagenic call (Test System: AMES SALMONELLA TYPHIMURIUM, Strain/Indicator: TA1535, Metabolic Activation: NONE, Method: PREINCUBATION) is “inactive; negative”; the mutagenic call (Test System: AMES SALMONELLA TYPHIMURIUM, Strain/Indicator: TA1535, Metabolic Activation: RAT, LIVER, S-9, AROCLOR 1254 (10%), Method: PREINCUBATION) was “inactive; negative”; the mutagenic call (Test System: AMES SALMONELLA TYPHIMURIUM, Strain/Indicator: TA1537, Metabolic Activation: HAMSTER, LIVER, S-9, AROCLOR 1254 (10%), Method: PREINCUBATION) was “inactive; negative”; the mutagenic call (Test System: AMES SALMONELLA TYPHIMURIUM, Strain/Indicator: TA1537, Metabolic Activation: NONE, Method: PREINCUBATION) is “inactive; negative”; the mutagenic call (Test System: AMES SALMONELLA TYPHIMURIUM, Strain/Indicator: TA1537, Metabolic Activation: RAT, LIVER, S-9, AROCLOR 1254 (10%), Method: PREINCUBATION) was “inactive; negative”.

With `CCN(CC)S(=O)(=O)c1ccc(N)cc1`, the mutagenic call by setting is: under setting [3], “inactive; negative”; (Test System: AMES SALMONELLA TYPHIMURIUM, Strain/Indicator: TA98, Metabolic Activation: RAT, LIVER, S-9, AROCLOR 1254, Method: PREINCUBATION) “inactive; negative”; under setting [4], “inactive; negative”; (Test System: AMES SALMONELLA TYPHIMURIUM, Strain/Indicator: TA100, Metabolic Activation: RAT, LIVER, S-9, AROCLOR 1254, Method: PREINCUBATION) “inactive; negative”.

The record behind these values is PubChem BioAssay AID1259407 (Chemical Carcinogenesis Research Information System (CCRIS), 2018).
